Among the data in PubChem BioAssay (NCI) are GI50 and TGI values, retold here.

Structures are written as SMILES.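 Values below derive from 48-hour exposures of cells grown in 96-well plates, with endpoints linearly interpolated between the two concentrations bracketing the appropriate inhibition level. GI50 = concentration required for 50% inhibition of growth. TGI: total growth inhibition.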

Among the test systems are HOP-92 NSCLC; MDA-MB-231 breast; MOLT-4 leukemia; NCI-H23 lung; SF-539 CNS; SK-MEL-28 melanoma; A498 renal; HL-60(TB) leukemia; MALME-3M melanoma; SR leukemia.
Common to all, as to assay: growth of human tumour cells (NCI), 48 h

As for `O=S(=O)(/N=c1/scc(-c2ccccc2)n1-c1ccccc1)c1ccc(N2N=C3c4ccccc4CC3C2c2cccs2)cc1` (stereo unspecified), the GI50 was greater than 100 µM in the experiment on HOP-92 NSCLC; 52.1 µM in the experiment with MDA-MB-231 breast; 19 µM in the experiment with MOLT-4 leukemia; 68 µM in the experiment with NCI-H23 lung; greater than 100 µM with SF-539 CNS; greater than 100 µM in the experiment with SK-MEL-28 melanoma. In addition, the TGI is greater than 100 µM with HOP-92 NSCLC; greater than 100 µM in the experiment with MDA-MB-231 breast; 63.7 µM in the experiment with MOLT-4 leukemia; greater than 100 µM in the experiment on NCI-H23 lung; greater than 100 µM in the experiment on SF-539 CNS; greater than 100 µM in the experiment with SK-MEL-28 melanoma.

With `C=C[C@]1(C)CCC2=C(CCC3C2(C)CCC[C@@]3(C)COC(C)=O)C1` (stereo partly specified), the TGI in the experiment with A498 renal was found to be 54.3 µM; in the experiment on HL-60(TB) leukemia, 36.4 µM; in the experiment on HOP-92 NSCLC, 35 µM; in the experiment with MALME-3M melanoma, 62.4 µM; in the experiment with MOLT-4 leukemia it was 30.3 µM; with NCI-H23 lung, 43.3 µM. For the same compound, the results for the TGI in the experiment with SF-539 CNS, in the experiment with SK-MEL-28 melanoma and in the experiment on SR leukemia were 37.9 µM, 60.4 µM and 35.8 µM, respectively.

As to `O=C1CCSC2=C1SCc1sccc12`, the TGI in the experiment with HL-60(TB) leukemia, in the experiment on HOP-92 NSCLC, in the experiment with MALME-3M melanoma, in the experiment with MOLT-4 leukemia, in the experiment with NCI-H23 lung and in the experiment with SK-MEL-28 melanoma was greater than 100 µM throughout.

Consider `CCNC(=O)O/N=C1\CCC2[C@@H]3CC=C4C[C@@H](OC5CCCCO5)CC[C@]4(C)C3CC[C@]12C` (stereo partly specified), for which the TGI in the experiment with A498 renal is greater than 100 µM; with HOP-92 NSCLC it was 7.34 µM; in the experiment on MOLT-4 leukemia, 3.87 µM; in the experiment with NCI-H23 lung, 11.1 µM; in the experiment on SF-539 CNS it was greater than 100 µM; in the experiment on SK-MEL-28 melanoma, 10.8 µM.

For the compound `CC(C)NC(=O)CCN(C(=O)O)S(=O)(=O)c1ccc(NC(=O)c2ccccc2)cc1`, the TGI with A498 renal was greater than 100 µM; with HL-60(TB) leukemia it was greater than 64 µM; in the experiment on HOP-92 NSCLC, greater than 100 µM; with MALME-3M melanoma, greater than 100 µM; in the experiment with MOLT-4 leukemia it was greater than 57.9 µM; in the experiment with NCI-H23 lung it was greater than 100 µM. Further, the TGI with SF-539 CNS is 67.5 µM; in the experiment with SK-MEL-28 melanoma it was greater than 100 µM; in the experiment on SR leukemia it was greater than 83 µM.

As to `Cc1ccccc1-n1c2nc(=O)n(C)c(=O)c-2nc2ccccc21`, the TGI with A498 renal came out at 79.1 µM; in the experiment on HL-60(TB) leukemia, 35.8 µM; in the experiment with MALME-3M melanoma, 16.8 µM; in the experiment on MOLT-4 leukemia, 39.7 µM; in the experiment on NCI-H23 lung, 24.6 µM; in the experiment on SF-539 CNS it was 29.2 µM.

For `Cc1ccc(NC(=O)/C(Cl)=C(/Cl)C(=O)O)cc1`, the TGI with A498 renal is greater than 100 µM; with HL-60(TB) leukemia it was 4.36 µM; with HOP-92 NSCLC it was 32.6 µM; in the experiment on MALME-3M melanoma it was 29.3 µM; in the experiment with MOLT-4 leukemia it was 43.5 µM; with NCI-H23 lung, 31.8 µM. Besides, the TGI with SK-MEL-28 melanoma stood at 33 µM; in the experiment with SR leukemia, 53.6 µM.

As to `CC1(c2ccccc2)CC(c2cccc([N+](=O)[O-])c2)=NO1` (stereo unspecified), the TGI with A498 renal, in the experiment with HOP-92 NSCLC, with MALME-3M melanoma, in the experiment on MOLT-4 leukemia, in the experiment with NCI-H23 lung and in the experiment on SF-539 CNS was greater than 100 µM each time. The TGI in the experiment on SK-MEL-28 melanoma and in the experiment with SR leukemia was greater than 100 µM each time.

Turning to `COC(=O)C(Cc1nc2ccccc2nc1C)/C(=N\NC(N)=O)C(=O)Nc1cccc([N+](=O)[O-])c1` (stereo unspecified), the TGI in the experiment with A498 renal, in the experiment with HL-60(TB) leukemia, in the experiment with MALME-3M melanoma, in the experiment with MOLT-4 leukemia, in the experiment with NCI-H23 lung and in the experiment on SF-539 CNS was greater than 100 µM each time. Also, the TGI with SK-MEL-28 melanoma and with SR leukemia was greater than 100 µM each time.

Turning to `COc1cc([C@@H]2C[C@H]2c2cc(SC)n[nH]2)cc(OC)c1OC`, the GI50 is 12.1 µM with MDA-MB-231 breast, 20.3 µM in the experiment with MOLT-4 leukemia, 21.1 µM in the experiment with NCI-H23 lung and 23.5 µM in the experiment with SK-MEL-28 melanoma. The TGI with MDA-MB-231 breast is 33.2 µM; in the experiment with MOLT-4 leukemia, greater than 100 µM; in the experiment with NCI-H23 lung, 58 µM; in the experiment with SK-MEL-28 melanoma, greater than 100 µM.

For the compound `CCOc1cccc(-c2nc(N)nc(Nc3ccccc3SSc3ccccc3Nc3nc(N)nc(-c4cccc(OCC)c4)n3)n2)c1`, the GI50 in the experiment with A498 renal was 8.24 µM; in the experiment on HL-60(TB) leukemia it was 2.14 µM; in the experiment with HOP-92 NSCLC, 2.77 µM; with MALME-3M melanoma, 5.63 µM; with MDA-MB-231 breast it was 3.72 µM; in the experiment on MOLT-4 leukemia, 2.61 µM. Moreover, the GI50 with NCI-H23 lung is 3.79 µM; with SF-539 CNS it was 9.2 µM; in the experiment on SK-MEL-28 melanoma, 10.7 µM. In addition, the TGI is greater than 100 µM in the experiment with A498 renal; 6.09 µM in the experiment on HL-60(TB) leukemia; 9.86 µM with HOP-92 NSCLC; greater than 100 µM in the experiment on MALME-3M melanoma; 27 µM in the experiment on MDA-MB-231 breast; greater than 100 µM in the experiment on MOLT-4 leukemia. For the same compound, the TGI in the experiment on NCI-H23 lung, in the experiment with SF-539 CNS and with SK-MEL-28 melanoma was greater than 100 µM in each case.

As to `COc1cc(/C=C/C(=O)N2CCN(C(=O)c3cc(OC)c(OC)c(OC)c3)CC2)ccc1OCCCOc1cc2c(cc1OC)C(=O)N1CCC[C@H]1C=N2`, the GI50 in the experiment on A498 renal is 0.205 µM; in the experiment with HL-60(TB) leukemia it was 0.214 µM; in the experiment with HOP-92 NSCLC it was 0.297 µM; in the experiment with MALME-3M melanoma, 0.175 µM; in the experiment on MOLT-4 leukemia, 0.218 µM; in the experiment on NCI-H23 lung, 0.296 µM. The results for the GI50 in the experiment with SF-539 CNS and in the experiment with SK-MEL-28 melanoma were 0.248 µM and 0.212 µM, respectively. Further, the TGI in the experiment on A498 renal came to 0.51 µM; with HOP-92 NSCLC, 7.46 µM; in the experiment with MALME-3M melanoma it was 0.319 µM; in the experiment with MOLT-4 leukemia, 1.59 µM; in the experiment with NCI-H23 lung, 0.974 µM; in the experiment with SF-539 CNS, 0.578 µM. This compound registered a TGI in the experiment with SK-MEL-28 melanoma of 0.417 µM.

Consider `CC#CC1C2CCCC1(CSc1ccccc1)NC(=O)O2` (stereo unspecified), for which the TGI in the experiment on A498 renal, in the experiment on HL-60(TB) leukemia, in the experiment with HOP-92 NSCLC, with MALME-3M melanoma, in the experiment with MOLT-4 leukemia and with NCI-H23 lung was greater than 100 µM in each case. In addition, the TGI in the experiment with SF-539 CNS and with SR leukemia was greater than 100 µM throughout.
